Data: US5116841A, “Imidazoquinoxalines and their preparation and use” (Novo Nordisk A/S, priority 1989, dated 1992)

These molecules were tested on benzodiazepine receptors (assay: in vivo displacement of 3H-flunitrazepam from brain benzodiazepine receptors in mice). Settings: female NMR mice, i.p.; 3H-FNM i.v. 15 min after test substance; forebrain 20 min later; dose inhibiting 50% of specific 3H-FNM binding.
Description: The pharmaceutical properties of the compounds of the invention can be illustrated by determining their capability for displacing radioactive labelled flunitrazepam from benzodiazepine receptors.
The displacement activity of the compounds of the invention may be found by determining the ED50 value. The ED50 value represents the dose (mg/kg) of a test substance which causes the specific binding of flunitrazepam to benzodiazepine receptors in a living brain to be reduced to 50% of the control value.
Such an in vivo test is carried out as follows:
Principle. Twenty minutes after a dose of ^3 H-flunitrazepam (^3 H-FNM) (200 μCi/kg, i.v.) the amount of specific ^3 H-FNM binding to brain benzodiazepine receptors has reached its maximal value.
Test procedure. Suspensions of test substances (2 mg/ml) are prepared in 5% Duphasol-X (TM Duphar, castor oil-ethylene oxide derivative for emulsifying and solubilizing oil and other water-insoluble substances) by sonification for 10 min using a Branson B15 microtip ultrasonifier (setting 7). Groups of three mice (female, NMR, 18-22 grams) are injected with the test substance at 100 mg/kg intraperitoneally. Fifteen minutes after test substance administration the mice are challenged with 4 μCi intravenously of ^3 H-FNM (70-90) Ci/mole) in 200 μl physiological saline. Twenty minutes after ^3 H-FNM administration mice are sacrificed by decapitation, the forebrains rapidly excised (within 30 sec) and homogenized in 12 ml of icecold 25 mM KH2 PO4, pH 7.1, using an Ultra-Turrax homogenizer fitted with an N 10 shaft. […] The amounts of radioactivity on the filters are determined by conventional scintillation counting. […]
Results. The ED50 value is determined from dose response curves. If only one dose of test substance is administered the ED50 value is calculated as follows, provided that the inhibition of specific binding is within the range of 25-75%: [formula] where Co is specific binding in controls and Cx is specific binding in mice treated with test substance.
With `COc1cccc(Cn2c(=O)c3c(-c4cc(C)no4)ncn3c3ccccc32)c1` [Compound 27, 4,5-dihydro-5-(3-methoxybenzyl)-3-(3-methyl-5-isoxazolyl)-4-oxo-imidazo[1,5-a]quinoxaline] the ED50 was 0,45 mg/kg. For `CC(C)n1c(=O)c2c(-c3cc(C4CC4)on3)ncn2c2ccccc21` [Compound 8, 3-(5-cyclopropyl-3-isoxazolyl)-4,5-dihydro-5-isopropyl-4-oxo-imidazo[1,5-a]quinoxaline], the ED50 was 1,8 mg/kg. `CC(C)=CCn1c(=O)c2c(-c3cc(C)no3)ncn2c2ccccc21` [Compound 29, 4,5-dihydro-5-(3,3-dimethylallyl)-3-(3-methyl-5-isoxazolyl)-4-oxo-imidazo[1,5-a]quinoxaline] was tested, and the ED50 was 0,37 mg/kg.
